Several values for one entry are separate records, joined by “and”; a condition that tells them apart may be missing. Identical values can stand only once. Each block holds one compound with its values, some of them ahead of it.
Test system: 786-0 complex spheroid viability
Assay: Anticancer human tumor 786-0 cell line growth inhibition;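 note: spheroids exposed to agents for seven days before readout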
Conditions: for viability, T/C: stronger effect = lower value
How it was run: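 Drug combinations with the LSD1 inhibitor iadademstat tested on tumor cells co-cultured as spheroids with endothelial cells and mesenchymal stem cells. Concentrations descended in half-log increments from clinical Cmax or 10 microM.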

[1] = curve of first compound, second compound 0.1 µM
[2] = curve of first compound, second compound 0.316 µM
[3] = curve of first compound, second compound 1 µM
[4] = curve of first compound, second compound 3.16 µM
[5] = curve of first compound, second compound 10 µM
[6] = second compound 0.1 µM, first compound 0.00949 µM
[7] = second compound 0.1 µM, first compound 0.03 µM
[8] = second compound 0.1 µM, first compound 0.0949 µM
[9] = second compound 0.1 µM, first compound 0.3 µM
[10] = second compound 0.316 µM, first compound 0.00949 µM
[11] = second compound 0.316 µM, first compound 0.03 µM
[12] = second compound 0.316 µM, first compound 0.0949 µM
[13] = second compound 0.316 µM, first compound 0.3 µM
[14] = second compound 1 µM, first compound 0.00949 µM
[15] = second compound 1 µM, first compound 0.03 µM
[16] = second compound 1 µM, first compound 0.0949 µM
[17] = second compound 1 µM, first compound 0.3 µM
[18] = second compound 3.16 µM, first compound 0.00949 µM
[19] = second compound 3.16 µM, first compound 0.03 µM
[20] = second compound 3.16 µM, first compound 0.0949 µM
[21] = second compound 3.16 µM, first compound 0.3 µM
[22] = second compound 10 µM, first compound 0.00949 µM
[23] = second compound 10 µM, first compound 0.03 µM
[24] = second compound 10 µM, first compound 0.0949 µM
[25] = second compound 10 µM, first compound 0.3 µM

Structure (SMILES): O=C(C=Cc1cccc(S(=O)(=O)Nc2ccccc2)c1)NO + NC1CCC(NC2CC2c2ccccc2)CC1
IC50 [1]: 942 nM | IC50 [2]: 1020 nM | IC50 [3]: 912 nM | IC50 [4]: 653 nM | IC50 [5]: 446 nM | viability, T/C [6]: 112% | viability, T/C [7]: 109% | viability, T/C [8]: 107% | viability, T/C [9]: 99.6% | viability, T/C (second compound 0.1 µM, first compound 0.949 µM): 49.6% | viability, T/C (second compound 0.1 µM, first compound 3 µM): 6.03% | viability, T/C [10]: 113% | viability, T/C [11]: 111% | viability, T/C [12]: 112% | viability, T/C [13]: 104% | viability, T/C (second compound 0.316 µM, first compound 0.949 µM): 53.2% | viability, T/C (second compound 0.316 µM, first compound 3 µM): 5.39% | viability, T/C [14]: 107% | viability, T/C [15]: 107% | viability, T/C [16]: 110% | viability, T/C [17]: 92.8% | viability, T/C (second compound 1 µM, first compound 0.949 µM): 48.7% | viability, T/C (second compound 1 µM, first compound 3 µM): 5.27% | viability, T/C [18]: 96% | viability, T/C [19]: 101% | viability, T/C [20]: 93.8% | viability, T/C [21]: 81.9% | viability, T/C (second compound 3.16 µM, first compound 0.949 µM): 34.8% | viability, T/C (second compound 3.16 µM, first compound 3 µM): 6.76% | viability, T/C [22]: 80.5% | viability, T/C [23]: 77% | viability, T/C [24]: 76.4% | viability, T/C [25]: 60.7% | viability, T/C (second compound 10 µM, first compound 0.949 µM): 29.1% | viability, T/C (second compound 10 µM, first compound 3 µM): 2.25%

Structure (SMILES): O=C(c1cc(Cc2n[nH]c(=O)c3ccccc23)ccc1F)N1CCN(C(=O)C2CC2)CC1 + NC1CCC(NC2CC2c2ccccc2)CC1
IC50 [1]: > 10000 nM | IC50 [2]: > 10000 nM | IC50 [3]: > 10000 nM | IC50 [4]: > 10000 nM | IC50 [5]: 8150 nM | viability, T/C (second compound 0.1 µM, first compound 0.0316 µM): 114% | viability, T/C (second compound 0.1 µM, first compound 0.1 µM): 119% | viability, T/C (second compound 0.1 µM, first compound 0.316 µM): 111% | viability, T/C (second compound 0.1 µM, first compound 1 µM): 101% | viability, T/C (second compound 0.1 µM, first compound 3.16 µM): 83.1% | viability, T/C (second compound 0.1 µM, first compound 10 µM): 71.4% | viability, T/C (second compound 0.316 µM, first compound 0.0316 µM): 119% | viability, T/C (second compound 0.316 µM, first compound 0.1 µM): 112% | viability, T/C (second compound 0.316 µM, first compound 0.316 µM): 115% | viability, T/C (second compound 0.316 µM, first compound 1 µM): 104% | viability, T/C (second compound 0.316 µM, first compound 3.16 µM): 87.1% | viability, T/C (second compound 0.316 µM, first compound 10 µM): 72.6% | viability, T/C (second compound 1 µM, first compound 0.0316 µM): 115% | viability, T/C (second compound 1 µM, first compound 0.1 µM): 113% | viability, T/C (second compound 1 µM, first compound 0.316 µM): 104% | viability, T/C (second compound 1 µM, first compound 1 µM): 92.9% | viability, T/C (second compound 1 µM, first compound 3.16 µM): 76.6% | viability, T/C (second compound 1 µM, first compound 10 µM): 62.3% | viability, T/C (second compound 3.16 µM, first compound 0.0316 µM): 99.3% | viability, T/C (second compound 3.16 µM, first compound 0.1 µM): 99.3% | viability, T/C (second compound 3.16 µM, first compound 0.316 µM): 100% | viability, T/C (second compound 3.16 µM, first compound 1 µM): 91.8% | viability, T/C (second compound 3.16 µM, first compound 3.16 µM): 79.3% | viability, T/C (second compound 3.16 µM, first compound 10 µM): 57.3% | viability, T/C (second compound 10 µM, first compound 0.0316 µM): 79.8% | viability, T/C (second compound 10 µM, first compound 0.1 µM): 82.7% | viability, T/C (second compound 10 µM, first compound 0.316 µM): 88.4% | viability, T/C (second compound 10 µM, first compound 1 µM): 81.7% | viability, T/C (second compound 10 µM, first compound 3.16 µM): 67.2% | viability, T/C (second compound 10 µM, first compound 10 µM): 46.3%

Structure (SMILES): CCc1c2c(nc3ccc(O)cc13)-c1cc3c(c(=O)n1C2)COC(=O)[C@]3(O)CC + NC1CC1c1ccc(-c2cccc(O)c2)cc1
IC50 [1]: < 0.949 nM | IC50 [2]: < 0.949 nM | IC50 [3]: < 0.949 nM | IC50 [4]: < 0.949 nM | IC50 [5]: < 0.949 nM | viability, T/C (second compound 0.1 µM, first compound 0.000949 µM): 4.23% | viability, T/C (second compound 0.1 µM, first compound 0.003 µM): 4.35% | viability, T/C [6]: 4.15% | viability, T/C [7]: 6.01% | viability, T/C [8]: 8.35% | viability, T/C [9]: 9.73% | viability, T/C (second compound 0.316 µM, first compound 0.000949 µM): 4.4% | viability, T/C (second compound 0.316 µM, first compound 0.003 µM): 3.22% | viability, T/C [10]: 4.02% | viability, T/C [11]: 6.1% | viability, T/C [12]: 8.62% | viability, T/C [13]: 9.44% | viability, T/C (second compound 1 µM, first compound 0.000949 µM): 3.72% | viability, T/C (second compound 1 µM, first compound 0.003 µM): 3.14% | viability, T/C [14]: 4.57% | viability, T/C [15]: 6.53% | viability, T/C [16]: 7.76% | viability, T/C [17]: 8.97% | viability, T/C (second compound 3.16 µM, first compound 0.000949 µM): 4.08% | viability, T/C (second compound 3.16 µM, first compound 0.003 µM): 3.82% | viability, T/C [18]: 4.22% | viability, T/C [19]: 6.42% | viability, T/C [20]: 7.92% | viability, T/C [21]: 7.63% | viability, T/C (second compound 10 µM, first compound 0.000949 µM): 3.29% | viability, T/C (second compound 10 µM, first compound 0.003 µM): 4.49% | viability, T/C [22]: 5.68% | viability, T/C [23]: 8.54% | viability, T/C [24]: 9.57% | viability, T/C [25]: 9.08%

IC50 (curve of compound): > 3000 nM
Structure (SMILES): CCN(c1cc(-c2ccc(CN3CCOCC3)cc2)cc(C(=O)NCc2c(C)cc(C)[nH]c2=O)c1C)C1CCOCC1
viability, T/C (compound 0.00949 µM): 100% | viability, T/C (compound 0.03 µM): 103% and 105% | viability, T/C (compound 0.0949 µM): 106% and 100% | viability, T/C (compound 0.3 µM): 104% and 102% | viability, T/C (compound 0.949 µM): 102% and 98% | viability, T/C (compound 3 µM): 97.4% and 96.9%

Reference: PubChem BioAssay AID1918944 (Molecular Pharmacology Branch, DTP, NCI, 2023)
